In the supplement of paper PMC10307832:

Legend:
Test in all cases: relative viability (nuclei count vs DMSO), 5 days (fraction); higher = more cells survive
[1] = compound: CCN1C(=O)C2=CC(=C(N=C2N(C1=O)C3CC3)N)C(=O)N + CC(C)C[C@H](NC(=O)[C@H](Cc1ccccc1)NC(=O)c1cnccn1)B(O)O [Bortezomib] (partner 0.002 µM)
How it was run: (§1)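 The day after seeding in 1536-well plates, lung cancer cell lines were treated by pin tool with a single drug, or with a fixed anchor-drug dose together with five library-drug doses (not always all listed) in √10 steps. After 5 days, a combined fix-and-stain solution (final 0.05% Triton X-100, 1% formaldehyde, 1 ug/ml Hoechst) was added. Nuclei counted on 4× images gave relative viability as treated counts over vehicle counts, reported as the median of duplicate plates.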

[2] = compound: CCN1C(=O)C2=CC(=C(N=C2N(C1=O)C3CC3)N)C(=O)N + C[C@]1(O)C[C@@H](c2nc(-c3ccc4ccc(-c5ccccc5)nc4c3)c3c(N)nccn32)C1 [Linsitinib] (partner 1 µM)
How it was run: as §1

[3] = compound: CCN1C(=O)C2=CC(=C(N=C2N(C1=O)C3CC3)N)C(=O)N + Cc1cc(Nc2cc(N3CCN(C)CC3)nc(Sc3ccc(NC(=O)C4CC4)cc3)n2)n[nH]1 [Tozasertib] (partner 0.1 µM)
How it was run: as §1

[4] = compound: CCN1C(=O)C2=CC(=C(N=C2N(C1=O)C3CC3)N)C(=O)N + N=C(N)NC(=N)NCCc1ccccc1 [Phenformin] (partner 250 µM)
How it was run: as §1

[5] = compound: CCN1C(=O)C2=CC(=C(N=C2N(C1=O)C3CC3)N)C(=O)N + Nc1nc2[nH]cc(CCc3ccc(C(=O)N[C@@H](CCC(=O)O)C(=O)O)cc3)c2c(=O)[nH]1 [Pemetrexed] (partner 0.2 µM)
How it was run: as §1

Cell Line | relative viability ([1]; first compound 0.253 µM) | relative viability ([1]; first compound 0.8 µM) | relative viability ([1]; first compound 2.53 µM) | relative viability ([1]; first compound 8 µM) | relative viability ([2]; first compound 0.253 µM) | relative viability ([2]; first compound 0.8 µM) | relative viability ([2]; first compound 2.53 µM) | relative viability ([2]; first compound 8 µM) | relative viability ([3]; first compound 0.253 µM) | relative viability ([3]; first compound 0.8 µM) | relative viability ([3]; first compound 2.53 µM) | relative viability ([3]; first compound 8 µM) | relative viability ([4]; first compound 0.253 µM) | relative viability ([4]; first compound 0.8 µM) | relative viability ([4]; first compound 2.53 µM) | relative viability ([4]; first compound 8 µM) | relative viability ([5]; first compound 0.253 µM) | relative viability ([5]; first compound 0.8 µM) | relative viability ([5]; first compound 2.53 µM) | relative viability ([5]; first compound 8 µM)
NCI-H661 | 0.809 | 0.9 | 0.793 | 0.942 | 0.568 | 0.636 | 0.558 | 0.603 | 0.339 | 0.356 | 0.354 | 0.335 | 0.287 | 0.302 | 0.267 | 0.278 | 0.918 | 0.905 | 0.935 | 0.886
LCLC-103H | 1.07 | 0.981 | 1.05 | 1.05 | 1.13 | 1.03 | 1.07 | 1.01 | 0.468 | 0.487 | 0.472 | 0.48 | 0.341 | 0.305 | 0.291 | 0.364 | 0.46 | 0.461 | 0.46 | 0.453
PC-3 [JPC-3] | 0.874 | 0.799 | 0.914 | 0.801 | 0.982 | 0.933 | 0.92 | 0.919 | 0.911 | 0.872 | 0.925 | 0.869 | 0.468 | 0.498 | 0.508 | 0.448 | 1.1 | – | 1.26 | 1.2
NCI-H2228 | 1.03 | 1.01 | 1.12 | 1.24 | 0.984 | 0.943 | 0.606 | 0.969 | 0.205 | 0.189 | 0.233 | 0.162 | 0.405 | 0.372 | 0.331 | 0.395 | 0.35 | 0.464 | 0.336 | 0.372
COR-L23 | 1 | 0.944 | 1.12 | 0.95 | 0.89 | 0.9 | 0.776 | 1.03 | 0.197 | 0.183 | 0.164 | 0.161 | 0.429 | 0.442 | 0.435 | 0.423 | 0.188 | 0.202 | 0.191 | 0.213
NCI-H1915 | 0.968 | 0.93 | 0.955 | 0.955 | 1.09 | 1.1 | 1.08 | 1.06 | 0.451 | 0.33 | 0.393 | 0.416 | 0.367 | 0.362 | 0.376 | 0.36 | 0.5 | 0.507 | 0.493 | 0.509
